{"source": "patent US11666642B2", "about": "“PDE5 compositions and methods for immunotherapy” (Obsidian Therapeutics, Inc., priority 2017, dated 2023)", "key": {"[1]": {"system": "hPDE5 truncation mutants (R732L) fused to AcGFP in HCT-116 cells", "assay": "Expression of hPDE5 truncation mutants, GFP MFI by FACS", "type": "cell-based, human", "description": "Several truncation mutants of the full length hPDE5 were generated to identify regions beyond the […] catalytic domain that may serve as a template for identifying DDs. The truncation mutants tested included amino acids 535-860 of hPDE5 WT (E535-Q860), amino acids 535 to 836 of hPDE5 WT (E535-S836), amino acids 590 to 860 of hPDE5 WT (M590-Q860), amino acids 590 to 836 of hPDE5 WT (M590-S836), wherein the amino acids positions are with respect to SEQ ID NO. 1. The DD mutation R732L was incorporated into all truncation mutants and its destabilizing potential was compared to E535-Q860 wildtype by fusing the mutants to an SG linker and reporter, AcGFP. […] As a control, parental untransduced cells and cells expressing OT-hPDE5N-001, or OT-hPDE5N-028 were also included in the analysis. The mean fluorescence intensity (MFI) of GFP was analyzed by FACS. […] The destabilizing mutation coefficient was calculated as the fold change in GFP intensity in the hPDE5 mutant constructs compared to the hPDE5 wildtype construct (OT-hPDE5N-019) in the absence of the ligand. Destabilizing mutation coefficients less than 1 are desirable. Stabilization ratios greater than 1 are desired in DDs."}, "[2]": {"system": "hPDE5 mutants fused to GFP in HCT116 cells", "assay": "Comparative analysis of hPDE5 ligands: stabilization ratios at the highest concentrations", "type": "cell-based, human", "procedure": "(§1) Mean fluorescence intensity (MFI) was measured by FACS. Parental HCT116 and cells expressing OT-hPDE5N-019 wildtype construct were also included as controls. […] The destabilizing mutation coefficient ratio was calculated as the fold change in GFP intensity in the hPDE5 mutant constructs compared to the hPDE5 wildtype construct (OT-hPDE5N-019) in the absence of the ligand. Destabilizing mutation coefficient ratios less than 1 are desirable. Stabilization ratios greater than 1 are desired in DDs.\nas §1, with “expressing OT-hPDE5N-019 comprising hPDE5 wildtype construct” for “expressing OT-hPDE5N-019 wildtype construct”, “Destabilizing mutation co-efficient ratios less” for “Destabilizing mutation coefficient ratios less”\nThe response of hPDE5 combination mutants to increasing doses of Tadalafil was tested. HCT116 cells transduced with hPDE5 constructs were treated with Tadalafil for 24 hours at doses ranging from 0.14 to 100 μM. Mean fluorescence intensity (MFI) was measured by FACS. Parental HCT116 and cells expressing OT-hPDE5N-019 comprising hPDE5 wildtype construct were also included as controls. The response of the combination mutants to Tadalafil was compared to the response of the single mutant construct OT-hPDE5N-020. The stabilization ratio (SR) was calculated as the fold change in GFP intensity in Tadalafil treated samples compared to treatment with DMSO (i.e. in the absence of ligand) with the same construct. The destabilizing mutation coefficient was calculated as the fold change in GFP intensity in the hPDE5 mutant constructs compared to the hPDE5 wildtype construct (OT-hPDE5N-0019) in the absence of the ligand. Destabilizing mutation coefficient less than 1 are desirable. Stabilization ratios greater than 1 are desired in DDs."}}}
{"substance": "OT-hPDE5N-020: construct consisting of E535-Q860 amino acids of hPDE5 with the R732L mutant, SG linker, AcGFP; single mutant construct", "values": [{"measurement": "ligand dependent stabilization (stabilization ratio) of truncation mutants", "setting": "[1]; 10 μM Sildenafil or Vardenafil, 48 hours, HCT-116", "result": "strongest ligand dependent stabilization with both ligands"}, {"measurement": "Sildenafil Stabilization ratio", "setting": "[1]; 10 μM Sildenafil vs DMSO, 48 hours", "result": 6.02}, {"measurement": "Vardenafil Stabilization ratio", "setting": "[1]; 10 μM Vardenafil vs DMSO, 48 hours", "result": 10.08}, {"measurement": "MFI Sildenafil", "setting": "[1]; HCT-116, 10 μM Sildenafil, 48 hours", "result": 55636}, {"measurement": "MFI Vardenafil", "setting": "[1]; HCT-116, 10 μM Vardenafil, 48 hours", "result": 93216}, {"measurement": "MFI DMSO", "setting": "[1]; HCT-116, DMSO, 48 hours", "result": 9248}, {"measurement": "destabilizing mutation coefficient", "setting": "[1]; vs hPDE5 wildtype construct in absence of ligand", "result": 0.14}, {"measurement": "Stabilization ratio", "setting": "[2]; Sildenafil (30 μM)", "result": 7.78}, {"measurement": "Stabilization ratio", "setting": "[2]; Tadalafil (100 μM)", "result": 8.94}, {"measurement": "Stabilization ratio", "setting": "[2]; Vardenafil (30 μM)", "result": 9.62}]}
